Experimental data taken from US20050256040A1, “Artificially designed pore-forming proteins with anti-tumor effects” (Buck Institute, priority 2004, published 2005).
“Also recorded” adds a separate entry of the source. Like-named read-outs stand apart in the source and are kept apart here.

Legend:
[1] = test system: KS1767 cells; assay: Matrigel / polymeric fibronectin assay of cell viability; format: cell-based, human; conditions: for effect on KS1767 cell layer: regardless of the presence of matrigel
Protocol: To determine the mechanisms responsible for selective anti-tumor activity of SGP in vivo, a matrigel assay (to mimic extracellular matrix) was developed. Cell viability was determined by morphology (see Ellerby, et al. (1999) supra.; and Ellerby, et al. (1997) supra.). KS1767 cells were incubated with SGP at 1 mM in the presence or absence of matrigel or polymeric fibronectin (sFN). The fibronectin polymer was produced as previously described (see Pasqualini, et al. (1996) Nature Med. 2, 1197-1203). Briefly, cell culture medium was aspirated from adherent cells. Cells were then coated with matrigel (gently pipetted on each well to completely coat the entire cell layer), or the fibronectin polymer, and incubated at 37° C. for 10 min. SGP was added and the cells were viewed on an inverted microscope (Nikon TE 300). KS1767 cells were also exposed to doxorubicin (20 μg/well) or SGP in the presence or absense of matrigel for 24 h. Cell viability (%) was evaluated after no treatment (medium or matrigel alone), incubation with SGP or doxorubicin. Cell death was evaluated morphologically (see Ellerby, et al. (1999) supra.; and Ellerby, et al. (1997) supra.), and cell viability was compared relative to untreated controls (no matrigel) or absence of SGP.

[2] = test system: KS1767 cells; format: cell-based; conditions: for CC50: KS 1767 cells, read-out: LC50 at 30 min; for toxicity to mammalian cultured cells compared with SGP: Table I cell types
Protocol: All cell lines were obtained commercially. The Kaposi's sarcoma-derived cell line KS1767 and the breast carcinoma cell line MDA-MB-435 have been described previously (see, for example, Herndier, et al. (1994) Aids 8, 575-581; Reisbach, et al. (1982) Anticancer Res. 2, 257-260; and Ellerby, et al. (1999) Nat. Med. 5, 1032-1038) and were cultured in 10% fetal bovine serum/Dulbecco's modified Eagle's medium, containing antibiotics.
(§1) To evaluate the effects of SGP on cell membranes multiple human cell lines of different origins were treated (see Table I, which presents a comparison of LC50 data for SGP, SGP-L, and SGP-E on a variety of cultured human cell types).
(§2) Cell viability was determined by morphology (see Ellerby, et al. (1999) Nat. Med. 5, 1032-1038; and Ellerby, et al. (1997) J. Neurosci. 17, 6165-6178). For viability assays, KS1767 cells were incubated with the concentrations of SGP, SGP-L, SGP-E, or control peptides indicated in the figures and in Table I. Briefly, at the given time points, cell culture medium was aspirated from adherent cells. Cells were then gently washed once with PBS at 37° C. A 20-fold dilution of the dye mixture (100 μg/ml acridine orange and 100 μg/ml ethidium bromide) in PBS was then gently pipetted on the cells and viewed on an inverted microscope (Nikon TE 300). […] Percent viability was calculated relative to untreated cells.

[3] = Cell viability LC50, cell line not given in Table I; format: cell-based; conditions: for CC50: cell line cell empty (row under KS 1767), read-out: LC50 at 30 min
Protocol: as §1, §2

[4] = Cell viability LC50, CADMEC cells; format: cell-based, human; conditions: human
Protocol: as §1, §2

[5] = Cell viability LC50, HUVEC cells; format: cell-based; conditions: human, HUVEC (Human Umbilical Cord Vascular Endothelial Cells)
Protocol: as §1, §2

[6] = Cell viability LC50, HPAEC cells; format: cell-based; conditions: human, HPAEC (Human Pulmonary Artery Endothelial Cells)
Protocol: as §1, §2

[7] = Cell viability LC50, 293 cells; format: cell-based; conditions: human, 293 cells (human kidney cells)
Protocol: as §1, §2

[8] = test system: human MDA-MB-435-derived breast carcinoma xenografts; assay: Anti-tumor activity, MDA-MB-435 breast carcinoma xenografts in nude mice; format: in vivo, nude/nude Balb/c mice; conditions: for tumor appearance: 4 weekly treatments at 40 μl/week, starting volume 100 mm^3
Protocol: (§3) MDA-MB-435-, KS1767-, PC-3-, and H358-derived human tumor xenografts were established in 2-month-old female or male (according to the tumor type), nude/nude Balb/c mice (Jackson Labs, Bar Harbor, Me.) by administering […] per mouse in a 200 μl volume of serum-free Dulbecco's modified Eagle's medium into the mammary fat pad or on the flank (see Ellerby, et al. (1999) Nat. Med. 5, 1032-1038). The mice were anesthetized with Avertin as described (see Ellerby, et al. (1999) supra.). SGP was administered directly into the center of the tumor mass at a concentration of 100 μM or 1 mM given slowly in 5 μl increments, for a total volume of 40 μl. Measurements of tumors were taken by caliper under anesthesia and used to calculate tumor volume (see Ellerby, et al. (1999) supra.). Animal experimentation was reviewed and approved by the Institutional Animal Care and Use Committee.
In the first set of experiments, tumors were allowed to form after injection of a breast carcinoma cell line (MDA-MD-435) and then treated with local injections of SGP. […] Starting tumor volumes ranged from about 100 mm^3 to large sizes of about 600 mm^3. Tumor-bearing mice were given four weekly treatments of PBS, or 100 μM or 1 mM SGP (40 μl/treatment given in 5 μl increments). After a 4-week period without treatment, the tumor volumes were measured at 8 weeks. The average tumor volume at the end of the experiment in the SGP-treated groups was […] than the average volume seen in the PBS-treated group (FIG. 3A). There was no difference between the average tumor volumes of the 2 SGP treatment groups. Mice treated with SGP remained tumor-free for up to 4 months after tumor implantation, before being euthanized for histological evaluation. These observations indicate that both primary tumor growth (FIG. 4) and metastases were inhibited. […] By successfully treating a large number of mice and testing the effects of SGP on several different tumor xenograft models (including carcinomas, sarcomas, and melanomas), the therapeutic properties of SGP were firmly established. […] It was also evaluated whether SGP produced adverse side effects such as necrosis when injected under normal skin.
MDA-MB-435-derived breast carcinoma and KS1767-derived Kaposi sarcoma xenografts and organs were removed, fixed in Bouin solution, embedded in paraffin for preparation of tissue sections, and stained with hematoxylin and eosin (see Ellerby, et al. (1999) supra.).

[9] = test system: human PC3-derived prostate carcinoma xenografts; assay: Anti-tumor activity, PC-3 prostate carcinoma xenografts in nude mice; format: in vivo, nude/nude Balb/c mice; conditions: PC-3 tumors, 10 weeks
Excerpt: (§4) Data are shown for human PC3-derived prostate carcinoma and H358 lung carcinoma. Tumor cells were implanted on the flank at the start of the experiments. Mice were divided in similar groups based on matched tumor volumes at the start of the experiment (open circles).
as §3

[10] = test system: H358 lung carcinoma xenografts; assay: Anti-tumor activity, H358 lung carcinoma xenografts in nude mice; format: in vivo, nude/nude Balb/c mice
Excerpt: as §4, §3

[11] = test system: normal skin; assay: Skin toxicity in nude mice; format: in vivo; conditions: 100 μM, injected sub-cutaneously or intradermally under normal skin
Protocol: 2-month-old female nude mice (Jackson Labs) were anesthetized with Avertin. 10 μl of 100 μM SGP or PBS was injected into the skin. The injected areas were monitored for 2 weeks.

[12] = cited from earlier work; for ability to disrupt synthetic membranes: Matsumoto et al. 2001
[13] = test system: CADMEC = Cell Applications Dermal Microvessel Endothelial Cells; assay: Cell viability LC50, CADMEC cells; format: cell-based, human; conditions: read-out: LC50 at 30 min
Protocol: as §1, §2

With `COc1cccc2c1C(=O)c1c(O)c3c(c(O)c1C2=O)C[C@@](O)(C(=O)CO)C[C@@H]3O[C@H]1C[C@H](N)[C@H](O)[C@H](C)O1` [doxorubicin, reference compound] the “effect on KS1767 cell viability” value ([1]; 20 μg/well, 24 h, in the presence of matrigel) was “decreased cell viability” and the “effect on KS1767 cell layer” value [1] was “damaged the cell layer”.

With `CCO` [ethanol, reference compound] the “effect on KS1767 cells” value ([1]; in the presence of polymeric fibronectin (sFN)) was “induced massive cell death” and the “effect on KS1767 cell layer” value [1] was “damaged the cell layer”.

With “Ac-AAAAAAWAAAAGPNGLYLKKKLLKKLLKLLGNPGLKLYKKLLKKLLLKLGNPGLLKLYKKLLKKLLKLL-OH [SGP, small globular protein]” the “effect on KS1767 cells” value ([2]; 3 μM, 24 h) was “classic morphological signs of apoptosis”, the “effect on KS1767 cells” value ([2]; 10 μM, within 60 s) was “extremely rapid non-necrotic, non-apoptotic cell death” and the “effect on KS1767 cells” value ([2]; 10 μM, within 60 min) was “necrosis”. For the same molecule, the “effect on KS1767 cells” value ([2]; below 5 μM, over 24-hour period, confirmed by caspase-3 activation assay) was “induction of apoptosis”, the “concentration affecting tumor derived cells as well as normal cells” value ([2]; cultured cells, tumor derived and normal) was about 3 µM and the CC50 at 30 min ([3]; human) was 4 µM. The CC50 at 30 min [4] was 5 µM, the CC50 at 30 min [5] was 7 µM and the CC50 at 30 min [6] was 5 µM. For the same molecule, the CC50 at 30 min [7] was 5 µM, the “effect on KS1767 cells” value ([1]; 1 mM, in the presence of matrigel) was “remain unaffected” and the “effect on KS1767 cell viability” value ([1]; 1 mM, in the presence of polymeric fibronectin (sFN)) was “ineffective; also recorded: remain unaffected”. For the same molecule, the “effect on KS1767 cells” value ([1]; 1 mM, without matrigel) was “decreases cell viability”, the “SGP activity in the presence of fibronectin alone” value ([1]; fibronectin alone (not polymeric), control) was “did not prevent SGP activity” and the tumor appearance ([8]; 100 μM) was “flattened and virtually disappeared”. The “histopathology of tumor xenografts” value ([8]; 100 μM, harvested at 8 weeks after treatment initiation) was “widespread cell death; also recorded: extensive apoptosis”, the tumor appearance ([8]; 1 mM) was “flattened and virtually disappeared” and the “difference between average tumor volumes of 100 μM and 1 mM groups” value ([8]; 8 weeks) was “no difference”. For the same molecule, the “histological analysis of the major organs” value ([8]; SGP-treated mice) was “no overt pathology”, the “time mice remained tumor-free after tumor implantation” value ([8]; before being euthanized for histological evaluation) was “up to 4 months” and the “tumor volume compared with PBS-treated controls” value ([8]; four weekly intratumoral treatments, 100 μM or 1 mM, 40 μl, measured at 8 weeks) was “significantly smaller; also recorded: smaller than controls”. The “primary tumor growth and metastases” value ([8]; mouse, in vivo) was “inhibited”, the “surgical examination of the tumor sites” value ([8]; mouse, in vivo) was “no sign of tumor cells” and the “tumor volume compared with PBS-treated tumors” value [9] was “smaller than control PBS-treated tumors”. The “tumor volume compared with PBS-treated tumors” value ([10]; H358 tumors, 9 weeks) was “smaller than control PBS-treated tumors”, the tumor appearance ([10]; after 6 weekly treatments at 40 μl/week, FIG. 5C) was “have disappeared” and the skin toxicity [11] was “relatively non-toxic to normal skin”. For the same molecule, the “pore size (conductance) in synthetic bilayers” value ([12]; Lee et al. 1997) was 14 pS.

With “DLSLARLATARLAI [negative control peptide, reference compound]” the “effect on KS1767 cells” value ([2]; 100 μM, 60 s) was “unaffected”, the “effect on KS1767 cells” value ([2]; 100 μM, 24 h) was “unaffected” and the “effect on KS1767 cells” value ([2]; 100 μM, after 60 min) was “unaffected”.

B1: SGP-L: SGP variant SEQ ID NO:4; central all alanine helix replaced by an all leucine helix; negative control (peptide)
chain: LLLLLLWLLLLGPNGLKLYKKLLKKLLKLLGNPGLKLYKKLLKKLLLKLGNPGLLKLYKKLLKKLLKLL
In the case of B1, the CC50 [2] is reported as 60 µM, the “toxicity to mammalian cultured cells compared with SGP” value [2] is reported as “substantially less toxic” and the CC50 [3] is reported as 60 µM. For the same molecule, the CC50 [13] was 60 µM and the “ability to disrupt synthetic membranes” value [12] was “diminished”.

B2: SGP-E: SGP variant SEQ ID NO:3; lysines replaced by glutamic acids; negative control (peptide)
chain: AAAAAAWAAAAGNPGLELLKKLYKKLLELLGNPGLELLKKYLKKLLELLGNPGLLELLKKYLKKLLELL
For B2, the CC50 [2] was 30 µM, the “toxicity to mammalian cultured cells compared with SGP” value [2] was “substantially less toxic” and the CC50 [3] was 30 µM. For the same molecule, the CC50 [13] was 30 µM and the “ability to disrupt synthetic membranes” value [12] was “diminished”.
